Laboratory results: US6673801B1, “Dihydroxyhexanoic acid derivatives” (Pfizer Inc., priority 1998, dated 2004)

How the values were obtained:
[1] = Kinetic solubility assay (turbidometric, phosphate buffer); settings: pH 7, aqueous buffer, kinetic from dmso stock
Experimental: (§1) Solubility of the compounds is determined at four fixed concentrations and is expressed as μg/mL. Solubility or insolubility is measured in phosphate buffer using a turbidometric plate reader by automated micro addition of a compound predissolved in DMSO. Solubilities at 50, 100, 200 and 250 or 100, 200, 400 and 500 micrograms/mL can be determined by predissolving 1 mg of compound in sufficient DMSO to reach an initial concentration of 20 or 40 μg/uL.
(§2) A spectramax 250 UV transparent 96 well microplate is filled with 200 uL of Stock pH 7 phosphate buffer solution. A series of 25 absorption readings in a 5 by 5 matrix at a wavelength of 492 nm are taken for each well in the microplate containing pH buffer alone. This scan is to be used as a “blank”, and the raw optical dispersion (OD) values are used as a baseline.
(§3) Compounds in DMSO solution are then added (column wise) down the microplate. Up to twenty four samples are assayed with each compound being placed in four contiguous wells column wise. Each column of the microplate contains four concentrations of compound in ascending concentration and ascending row order (A-D), or row (E-H). […] The plate is then shaken for 20 minutes to allow for mixing.
(§4) After compound addition, a second scan consisting of a series of 25 absorption readings in a 5 by 5 matrix are taken for each well in the microplate at the same wavelength as the first blank scan. The raw compound OD values for each reading in the 5 by 5 matrix are subtracted from the corresponding “blank” values in the 5 by 5 matrix to provide the raw solubility OD data.
(§5) Data obtained from the Tecan SLT Spectra Image Reader is then analyzed using a Visual Basic computer program (or can be calculated manually according to methods well known to those of ordinary skill in the art), so as to provide solubility data for each compound.

[2] = pH 7
Experimental: as §1, §2, §3, §4, §5

melting point	solubility at 20 min [1]	Solubility [2]	SMILES
–	> 250 µg/mL	–	CC(C)(O)CC[C@H](C[C@H](O)[C@H](Cc1cccs1)NC(=O)c1cnc2ccccc2n1)C(N)=O [Example 1, QUINOXALINE-2-CARBOXYLIC ACID (4(R)-CARBAMOYL-2(S),7-DIHYDROXY-7-METHYL-1(S)-THIOPHEN-2-YLMETHYL-OCTYL)-AMIDE]
110 to 120 °C	> 250 µg/mL	–	CC(C)(O)CC[C@H](C[C@H](O)[C@H](Cc1ccc(F)c(F)c1)NC(=O)c1cnc2ccccc2n1)C(N)=O [Example 11, Quinoxaline-2-carboxylic acid [4(R)-carbamoyl-1(S)-(3,4-difluoro-benzyl)-2(S),7-dihydroxy-7-methyl-octyl]-amide]
–	> 250 µg/mL	–	CC(C)(O)CC[C@H](C[C@H](O)[C@H](Cc1ccccc1Cl)NC(=O)c1cnc2ccccc2n1)C(N)=O [Example 7, Quinoxaline-2-carboxylic acid [4(R)-carbamoyl-1(S)-(2-chloro-benzyl)-2(S),7-dihydroxy-7-methyl-octyl]-amide]
–	< 5 µg/mL	–	CNC(=O)[C@H](CC(C)C)C[C@H](O)[C@H](Cc1ccc2ccccc2c1)NC(=O)c1cnc2ccccc2n1 [Example 127, quinoxaline-2-carboxylic acid (2(S)-hydroxy-6-methyl-4(R)-methylcarbamoyl-1(S)-naphthalen-2-ylmethyl-heptyl)-amide, reference compound]
147 to 148 °C	> 250 µg/mL	–	CC(C)(O)CC[C@H](C[C@H](O)[C@H](Cc1ccccc1F)NC(=O)c1cnc2ccccc2n1)C(N)=O [Example 9, Quinoxaline-2-carboxylic acid [4(R)-carbamoyl-1(S)-(2-fluoro-benzyl)-2(S),7-dihydroxy-7-methyl-octyl]-amide]
130 to 131 °C	> 250 µg/mL	–	CC(C)(O)CC[C@H](C[C@H](O)[C@H](Cc1ccccc1F)NC(=O)c1cnc2ccccc2n1)C(=O)NO [Example 8, Quinoxaline-2-carboxylic acid [1(S)-(2-fluoro-benzyl)-2(S),7-dihydroxy-4(R)-hydroxycarbamoyl-7-methyl-octyl]-amide]
155 to 158 °C	> 250 µg/mL	–	CC(C)(O)CC[C@H](C[C@H](O)[C@H](Cc1cccc2ccccc12)NC(=O)c1cnc2ccccc2n1)C(N)=O [Example 12, Quinoxaline-2-carboxylic acid (4(R)-carbamoyl-2(S),7-dihydroxy-7-methyl-1(S)-naphthalen-1-ylmethyl-octyl)-amide]
150 to 153 °C	> 200 µg/mL	–	CC(C)(O)CC[C@H](C[C@H](O)[C@H](Cc1ccc(F)c(F)c1)NC(=O)c1cnc2ccccc2n1)C(=O)NO [Example 10, Quinoxaline-2-carboxylic acid [1(S)-(3,4-difluoro-benzyl)-2(S),7-dihydroxy-4(R)-hydroxycarbamoyl-7-methyloctyl]-amide]
–	–	less than 5 μg/mL	CC(C)(F)CC[C@H](C[C@H](O)[C@H](Cc1ccccc1)NC(=O)c1cnc(Cl)c(Cl)c1)C(N)=O [Example 247]

SMILES	melting point	solubility at 20 min [1]	Solubility [2]
CC(C)(O)CC[C@H](C[C@H](O)[C@H](Cc1ccccc1)NC(=O)c1cnc2ccccc2n1)C(=O)NO [Example 6, Quinoxaline-2-carboxylic acid (1(S)-benzyl-2(S),7-dihydroxy-4(R)-hydroxycarbamoyl-7-methyl-octyl)-amide]	108 to 110 °C	> 250 µg/mL	–
CC(C)(O)CC[C@H](C[C@H](O)[C@H](Cc1ccccc1)NC(=O)c1cnc2c(F)c(F)c(F)cc2c1)C(N)=O [Example 5, 6,7,8-Trifluoro-quinoline-3-carboxylic acid (1(S)-benzyl-4(R)-carbamoyl 2(S),7-dihydroxy-7-methyl-octyl)-amide]	185 to 188 °C	> 250 µg/mL	–
